Results as given in patent US5840684A, “Glycopeptide antibiotic derivatives” (Eli Lilly and Company, priority 1995, dated 1998).
Values after ≈ are worked out from the molar mass of the structure shown.

What was measured:
[1] = system: Staphylococcus aureus 491; assay: broth micro-dilution MIC; type: cell-based
Method: (§1) The MIC's were determined using a standard broth micro-dilution assay.

[2] = system: Streptococcus pyogenes C203; assay: broth micro-dilution MIC; type: cell-based
Method: as §1

[3] = system: Entercoccus faecium 180-1; assay: broth micro-dilution MIC; type: cell-based
Method: as §1

[4] = system: Staphylococcus aureus 446; assay: broth micro-dilution MIC; type: cell-based
Method: as §1

[5] = system: Staphylococcus aureus 489; assay: broth micro-dilution MIC; type: cell-based
Method: as §1

[6] = system: Staphylococcus aureus 447; assay: broth micro-dilution MIC; type: cell-based
Method: as §1

Entercoccus faecium 276 = assay: broth micro-dilution MIC; type: cell-based
Method: as §1

[7] = system: Staphylococcus aureus X778; assay: broth micro-dilution MIC; type: cell-based
Method: as §1

[8] = system: Staphylococcus aureus X400; assay: broth micro-dilution MIC; type: cell-based
Method: as §1

[9] = system: Staphylococcus aureus SA1199A; assay: broth micro-dilution MIC; type: cell-based
Method: as §1

Entercoccus faecium 2041 = assay: broth micro-dilution MIC; type: cell-based; conditions: Entercoccus faecium 2041
Method: (§2) The formula I compounds have in vitro and in vivo activity against Gram-positive pathogenic bacteria. The MIC's were determined using a standard broth micro-dilution assay.

[10] = system: Staphylococcus haemolyticus 105; assay: broth micro-dilution MIC; type: cell-based
Method: as §2

[11] = system: Haemophilus influenzae RD; assay: broth micro-dilution MIC; type: cell-based; conditions: Haemophilus influenzae RD
Method: as §2

[12] = system: Staphylococcus epidermidis 270; assay: broth micro-dilution MIC; type: cell-based
Method: as §2

[13] = system: Enterococcus gallinarum 245; assay: broth micro-dilution MIC; type: cell-based; conditions: Enterococcus gallinarum 245
Method: as §2

Escherichia coli EC14 = assay: broth micro-dilution MIC; type: cell-based
Method: as §2

[14] = system: Streptococcus pneumoniae P1; assay: broth micro-dilution MIC; type: cell-based
Method: as §2

[15] = system: Staphylococcus haemolyticus 415; assay: broth micro-dilution MIC; type: cell-based
Method: as §2

Entercoccus faecium 180 = assay: broth micro-dilution MIC; type: cell-based; conditions: Entercoccus faecium 180
Method: as §2

[16] = system: vancomycin-susceptible enterococci; assay: broth micro-dilution, mean geometric MIC; type: cell-based, Enterococcus faecium and Enterococcus faecalis; conditions: enterococci, 24-hour incubation
[17] = system: vancomycin-resistant enterococci; assay: broth micro-dilution, mean geometric MIC; type: cell-based, Enterococcus faecium and Enterococcus faecalis; conditions: enterococci, 24-hour incubation
[18] = system: Staphylococcus aureus S13E; type: cell-based
Method: as §1

[19] = system: Staphylococcus aureus SA1199B; type: cell-based
Method: as §1

[20] = system: Staphylococcus aureus SA1199; assay: broth micro-dilution MIC; type: cell-based
Method: as §1

| SMILES | MIC [1] [µg/mL] | MIC [2] [µg/mL] | MIC [3] [µg/mL] | MIC [4] [µg/mL] | MIC [5] [µg/mL] | MIC [6] [µg/mL] | MIC (Entercoccus faecium 276) [µg/mL] | MIC [7] [µg/mL] | MIC [8] [µg/mL] | MIC [9] [µg/mL] | MIC (Entercoccus faecium 2041) [µg/mL] | MIC [10] [µg/mL] | MIC [11] [µg/mL] | MIC [12] [µg/mL] | MIC [13] [µg/mL] | MIC (Escherichia coli EC14) [µg/mL] | MIC (Entercoccus faecium 180) [µg/mL] | mean geometric MIC, Vancomycin Sensitive Strains [16] [µg/mL] | mean geometric MIC, Vancomycin Resistant Strains [17] [µg/mL] | MIC [19] [µg/mL] | further results |
| --- | --- | --- | --- | --- | --- | --- | --- | --- | --- | --- | --- | --- | --- | --- | --- | --- | --- | --- | --- | --- | --- |
| CNC(CC(C)C)C(=O)NC1C(=O)NC(CC(N)=O)C(=O)NC2C(=O)NC3C(=O)NC(C(=O)NC(C(=O)O)c4cc(O)cc(O)c4-c4cc3ccc4O)C(OC3CC(C)(N)C(O)C(C)O3)c3ccc(c(Cl)c3)Oc3cc2cc(c3OC2OC(CO)C(O)C(O)C2OC2CC(C)(NCc3c4ccccc4c(Cl)c4ccccc34)C(O)C(C)O2)Oc2ccc(cc2Cl)C1O (centres unmarked) [Compound 18] | 2 (≈ 1.1 µM) | ≤ 0.06 | ≤ 0.06 | 2 (≈ 1.1 µM) | 1 (≈ 0.55 µM) | 8 (≈ 4.4 µM) | 1 (≈ 0.55 µM) | 0.5 (≈ 0.275 µM) | 1 (≈ 0.55 µM) | ≤ 0.06 | 0.25 (≈ 0.138 µM) | 16 (≈ 8.81 µM) | 16 (≈ 8.81 µM) | 8 (≈ 4.4 µM) | 1 (≈ 0.55 µM) | > 64 | 2 (≈ 1.1 µM) | 0.38 | 6.7 | 2 (≈ 1.1 µM) | MIC [14]: ≤ 0.06 µg/mL; MIC [15]: 8 µg/mL (≈ 4.4 µM); MIC [18]: 1 µg/mL (≈ 0.55 µM) |
| CNC(CC(C)C)C(=O)NC1C(=O)NC(CC(N)=O)C(=O)NC2C(=O)NC3C(=O)NC(C(=O)NC(C(=O)O)c4cc(O)cc(O)c4-c4cc3ccc4O)C(OC3CC(C)(N)C(O)C(C)O3)c3ccc(c(Cl)c3)Oc3cc2cc(c3OC2OC(CO)C(O)C(O)C2OC2CC(C)(NCc3ccc4ccccc4n3)C(O)C(C)O2)Oc2ccc(cc2Cl)C1O (centres unmarked) [Compound 30] | 0.5 (≈ 0.288 µM) | – | ≤ 0.06 | 1 (≈ 0.577 µM) | 0.125 (≈ 0.0721 µM) | 2 (≈ 1.15 µM) | 0.25 (≈ 0.144 µM) | ≤ 0.06 | ≤ 0.06 | – | ≤ 0.06 | 4 (≈ 2.31 µM) | > 64 | 2 (≈ 1.15 µM) | ≤ 0.06 | > 64 | 2 (≈ 1.15 µM) | 0.071 | 4.7 | 0.125 (≈ 0.0721 µM) | MIC [20]: 0.5 µg/mL (≈ 0.288 µM); MIC [18]: 0.125 µg/mL (≈ 0.0721 µM) |
| CNC(CC(C)C)C(=O)NC1C(=O)NC(CC(N)=O)C(=O)NC2C(=O)NC3C(=O)NC(C(=O)NC(C(=O)O)c4cc(O)cc(O)c4-c4cc3ccc4O)C(OC3CC(C)(N)C(O)C(C)O3)c3ccc(c(Cl)c3)Oc3cc2cc(c3OC2OC(CO)C(O)C(O)C2OC2CC(C)(NCc3ccccn3)C(O)C(C)O2)Oc2ccc(cc2Cl)C1O (centres unmarked) [Compound 31] | 0.5 (≈ 0.297 µM) | – | ≤ 0.06 | 0.5 (≈ 0.297 µM) | ≤ 0.06 | 0.5 (≈ 0.297 µM) | – | – | – | – | – | 4 (≈ 2.38 µM) | > 64 | 1 (≈ 0.594 µM) | – | > 64 | 4 (≈ 2.38 µM) | 1.2 | 9.5 | – | – |
| CNC(CC(C)C)C(=O)NC1C(=O)NC(CC(N)=O)C(=O)NC2C(=O)NC3C(=O)NC(C(=O)NC(C(=O)O)c4cc(O)cc(O)c4-c4cc3ccc4O)C(OC3CC(C)(N)C(O)C(C)O3)c3ccc(c(Cl)c3)Oc3cc2cc(c3OC2OC(CO)C(O)C(O)C2OC2CC(C)(NCc3ccc([N+](=O)[O-])cc3)C(O)C(C)O2)Oc2ccc(cc2Cl)C1O (centres unmarked) [Compound 78] | 0.25 (≈ 0.145 µM) | ≤ 0.06 | ≤ 0.06 | 2 (≈ 1.16 µM) | ≤ 0.06 | ≤ 0.06 | 0.125 (≈ 0.0724 µM) | ≤ 0.06 | ≤ 0.06 | ≤ 0.06 | ≤ 0.06 | 2 (≈ 1.16 µM) | – | 0.5 (≈ 0.289 µM) | 0.125 (≈ 0.0724 µM) | > 64 | 1 (≈ 0.579 µM) | 0.76 | 16 | ≤ 0.06 | MIC [20]: 0.125 µg/mL (≈ 0.0724 µM); MIC [14]: ≤ 0.06 µg/mL; MIC [15]: 16 µg/mL (≈ 9.26 µM) |
| CNC(CC(C)C)C(=O)NC1C(=O)NC(CC(N)=O)C(=O)NC2C(=O)NC3C(=O)NC(C(=O)NC(C(=O)O)c4cc(O)cc(O)c4-c4cc3ccc4O)C(OC3CC(C)(N)C(O)C(C)O3)c3ccc(c(Cl)c3)Oc3cc2cc(c3OC2OC(CO)C(O)C(O)C2OC2CC(C)(NCC3CCCCC3)C(O)C(C)O2)Oc2ccc(cc2Cl)C1O (centres unmarked) [Compound 161] | 0.5 (≈ 0.296 µM) | ≤ 0.06 | ≤ 0.06 | 0.5 (≈ 0.296 µM) | ≤ 0.06 | 1 (≈ 0.592 µM) | 0.125 (≈ 0.074 µM) | 0.5 (≈ 0.296 µM) | 0.5 (≈ 0.296 µM) | ≤ 0.06 | ≤ 0.06 | 4 (≈ 2.37 µM) | – | 1 (≈ 0.592 µM) | 8 (≈ 4.74 µM) | > 64 | 2 (≈ 1.18 µM) | 0.44 | 23 | 0.25 (≈ 0.148 µM) | MIC [20]: 0.25 µg/mL (≈ 0.148 µM); MIC [14]: ≤ 0.06 µg/mL; MIC [15]: 8 µg/mL (≈ 4.74 µM); MIC [18]: 0.125 µg/mL (≈ 0.074 µM) |
| CNC(CC(C)C)C(=O)NC1C(=O)NC(CC(N)=O)C(=O)NC2C(=O)NC3C(=O)NC(C(=O)NC(C(=O)O)c4cc(O)cc(O)c4-c4cc3ccc4O)C(OC3CC(C)(NCc4ccc([N+](=O)[O-])cc4)C(O)C(C)O3)c3ccc(c(Cl)c3)Oc3cc2cc(c3OC2OC(CO)C(O)C(O)C2OC2CC(C)(NCc3ccc([N+](=O)[O-])cc3)C(O)C(C)O2)Oc2ccc(cc2Cl)C1O (centres unmarked) [Compound 245] | 0.5 (≈ 0.268 µM) | 2 (≈ 1.07 µM) | ≤ 0.06 | ≤ 0.06 | ≤ 0.06 | ≤ 0.06 | ≤ 0.06 | ≤ 0.06 | ≤ 0.06 | ≤ 0.06 | ≤ 0.06 | 1 (≈ 0.537 µM) | > 64 | 0.5 (≈ 0.268 µM) | ≤ 0.06 | 0.5 (≈ 0.268 µM) | 2 (≈ 1.07 µM) | 0.38 | 13 | ≤ 0.06 | MIC [20]: 0.25 µg/mL (≈ 0.134 µM); MIC [14]: 1 µg/mL (≈ 0.537 µM); MIC [15]: 8 µg/mL (≈ 4.29 µM) |
| CNC(CC(C)C)C(=O)NC1C(=O)NC(CC(N)=O)C(=O)NC2C(=O)NC3C(=O)NC(C(=O)NC(C(=O)O)c4cc(O)cc(O)c4-c4cc3ccc4O)C(OC3CC(C)(NCc4ccc5c(c4)Cc4ccccc4-5)C(O)C(C)O3)c3ccc(c(Cl)c3)Oc3cc2cc(c3OC2OC(CO)C(O)C(O)C2OC2CC(C)(NCc3ccc4c(c3)Cc3ccccc3-4)C(O)C(C)O2)Oc2ccc(cc2Cl)C1O (centres unmarked) [Compound 279] | 0.25 (≈ 0.128 µM) | ≤ 0.06 | ≤ 0.06 | 0.5 (≈ 0.257 µM) | – | 1 (≈ 0.513 µM) | 0.125 (≈ 0.0641 µM) | 0.25 (≈ 0.128 µM) | 0.25 (≈ 0.128 µM) | ≤ 0.06 | ≤ 0.06 | 4 (≈ 2.05 µM) | > 64 | 1 (≈ 0.513 µM) | 2 (≈ 1.03 µM) | > 64 | ≤ 0.06 | 0.11 | 2.4 | ≤ 0.06 | MIC [20]: 0.5 µg/mL (≈ 0.257 µM); MIC [14]: ≤ 0.06 µg/mL; MIC [15]: 2 µg/mL (≈ 1.03 µM); MIC [18]: 0.25 µg/mL (≈ 0.128 µM) |
